Earlier results on 1 substance are cited in patent US20140017187A1, “Use of 5-(7-methoxy-3,3-dimethyl-2,3-dihydro-1-benzoxepin-5-yl)-3-methyl-penta-2,4-dienoic acid as a cosmetic” (Merck Patent GmbH, priority 2008, published 2014).

This data set deals with T1, PPAR-alpha (Homo sapiens, UniProt Q07869).
T1 sequence (Q07869 1-468): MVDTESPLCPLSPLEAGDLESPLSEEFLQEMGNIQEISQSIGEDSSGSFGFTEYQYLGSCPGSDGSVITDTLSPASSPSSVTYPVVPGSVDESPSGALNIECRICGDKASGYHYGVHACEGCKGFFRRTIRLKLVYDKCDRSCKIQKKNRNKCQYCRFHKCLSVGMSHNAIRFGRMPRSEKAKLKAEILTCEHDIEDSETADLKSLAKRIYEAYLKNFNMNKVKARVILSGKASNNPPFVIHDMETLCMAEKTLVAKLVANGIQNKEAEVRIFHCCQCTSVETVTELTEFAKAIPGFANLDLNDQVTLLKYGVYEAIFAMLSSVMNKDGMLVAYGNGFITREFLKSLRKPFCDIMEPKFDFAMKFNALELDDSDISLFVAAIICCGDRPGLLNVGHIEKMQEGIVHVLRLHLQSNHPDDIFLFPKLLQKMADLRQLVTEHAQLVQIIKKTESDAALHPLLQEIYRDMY
Particulars: personal communication Johann Wiechers; cited from earlier work.

Turning to Octadecenedioic acid [O.D.A. White], the PPAR-alpha activation result is “negligible”.
